Data as given in US12435059B2, “AMP-activated protein kinase inhibitors and methods of making and using the same” (The Regents of the University of Colorado, priority 2019, dated 2025).
Read-outs that look alike come from different tables or passages of the source.

Experiments:
Experiment in all cases: biochemical
Assay type in all cases: binding
[1] = molecular target: 468 kinases (Homo sapiens, UniProt P36507); details: MEK2; read-out: % Inhibition @ 100 nM
[2] = molecular target: 468 kinases (Homo sapiens, UniProt P24723); details: PRKCH; read-out: % Inhibition @ 100 nM
[3] = molecular target: 468 kinases (Homo sapiens, UniProt P22694); details: PKAC-beta; read-out: % Inhibition @ 100 nM
[4] = molecular target: 468 kinases (Homo sapiens, UniProt P51617); details: IRAK1; read-out: % Inhibition @ 100 nM
[5] = molecular target: 468 kinases (Homo sapiens, UniProt Q9HC98); details: NEK6; read-out: % Inhibition @ 100 nM
[6] = molecular target: 468 kinases (Homo sapiens, UniProt Q00535); details: CDK5; read-out: % Inhibition @ 100 nM
[7] = molecular target: 468 kinases (Homo sapiens, UniProt P36888, D835Y); details: FLT3(D835Y); read-out: % Inhibition @ 100 nM
[8] = molecular target: 468 kinases (Homo sapiens, UniProt Q9UK32); details: read-out: % Inhibition @ 100 nM
[9] = molecular target: 468 kinases (Homo sapiens, UniProt Q05655); details: PRKCD; read-out: % Inhibition @ 100 nM
[10] = molecular target: 468 kinases (Homo sapiens, UniProt O60285); details: ARK5; read-out: % Inhibition @ 100 nM
[11] = molecular target: 468 kinases (Homo sapiens, UniProt Q16832); details: DDR2; read-out: % Inhibition @ 100 nM
468 kinases (Homo sapiens, UniProt Q16832), sequence (Q16832 22-855 limits assumed): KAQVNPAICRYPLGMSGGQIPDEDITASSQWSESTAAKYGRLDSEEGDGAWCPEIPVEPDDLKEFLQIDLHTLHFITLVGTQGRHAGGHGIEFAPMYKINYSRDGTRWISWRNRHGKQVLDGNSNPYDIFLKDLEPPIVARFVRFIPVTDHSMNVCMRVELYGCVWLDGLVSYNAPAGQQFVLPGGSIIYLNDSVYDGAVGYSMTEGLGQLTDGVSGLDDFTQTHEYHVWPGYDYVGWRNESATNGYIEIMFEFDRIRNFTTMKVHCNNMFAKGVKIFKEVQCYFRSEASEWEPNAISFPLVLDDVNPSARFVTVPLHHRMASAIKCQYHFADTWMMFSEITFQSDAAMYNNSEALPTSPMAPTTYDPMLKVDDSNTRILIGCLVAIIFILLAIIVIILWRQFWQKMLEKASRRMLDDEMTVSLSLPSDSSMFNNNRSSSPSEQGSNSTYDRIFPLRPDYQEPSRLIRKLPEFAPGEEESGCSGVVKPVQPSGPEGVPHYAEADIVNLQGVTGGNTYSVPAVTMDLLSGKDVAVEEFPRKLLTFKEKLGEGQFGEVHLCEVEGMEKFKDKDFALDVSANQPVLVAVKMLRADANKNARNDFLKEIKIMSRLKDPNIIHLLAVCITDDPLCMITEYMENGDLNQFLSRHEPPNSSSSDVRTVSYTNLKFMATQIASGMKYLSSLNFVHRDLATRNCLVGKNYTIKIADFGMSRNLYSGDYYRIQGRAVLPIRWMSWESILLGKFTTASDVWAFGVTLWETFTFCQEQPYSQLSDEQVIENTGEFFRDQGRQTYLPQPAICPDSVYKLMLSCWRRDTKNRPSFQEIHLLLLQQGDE

[12] = molecular target: 468 kinases (Homo sapiens, UniProt P50613); details: CDK7; read-out: % Inhibition @ 100 nM
468 kinases (Homo sapiens, UniProt P50613), sequence (P50613 2-346 limits assumed): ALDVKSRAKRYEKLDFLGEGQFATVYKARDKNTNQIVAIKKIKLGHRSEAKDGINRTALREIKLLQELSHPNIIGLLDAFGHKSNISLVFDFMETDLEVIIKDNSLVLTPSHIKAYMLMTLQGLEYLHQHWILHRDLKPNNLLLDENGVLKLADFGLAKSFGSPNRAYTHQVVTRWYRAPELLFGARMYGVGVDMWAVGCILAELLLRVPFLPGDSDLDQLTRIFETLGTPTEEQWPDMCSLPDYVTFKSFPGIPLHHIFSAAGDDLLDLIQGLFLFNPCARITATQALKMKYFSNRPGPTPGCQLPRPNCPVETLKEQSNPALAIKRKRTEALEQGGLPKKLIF

[13] = molecular target: 468 kinases (Homo sapiens, UniProt Q99558); details: NIK; read-out: % Inhibition @ 100 nM
[14] = molecular target: 468 kinases (Homo sapiens, UniProt P33981); details: TTK; read-out: % Inhibition @ 100 nM
[15] = molecular target: 468 kinases (Homo sapiens, UniProt P54760); details: EPHB4; read-out: % Inhibition @ 100 nM
468 kinases (Homo sapiens, UniProt P54760), sequence (P54760 16-987 limits assumed): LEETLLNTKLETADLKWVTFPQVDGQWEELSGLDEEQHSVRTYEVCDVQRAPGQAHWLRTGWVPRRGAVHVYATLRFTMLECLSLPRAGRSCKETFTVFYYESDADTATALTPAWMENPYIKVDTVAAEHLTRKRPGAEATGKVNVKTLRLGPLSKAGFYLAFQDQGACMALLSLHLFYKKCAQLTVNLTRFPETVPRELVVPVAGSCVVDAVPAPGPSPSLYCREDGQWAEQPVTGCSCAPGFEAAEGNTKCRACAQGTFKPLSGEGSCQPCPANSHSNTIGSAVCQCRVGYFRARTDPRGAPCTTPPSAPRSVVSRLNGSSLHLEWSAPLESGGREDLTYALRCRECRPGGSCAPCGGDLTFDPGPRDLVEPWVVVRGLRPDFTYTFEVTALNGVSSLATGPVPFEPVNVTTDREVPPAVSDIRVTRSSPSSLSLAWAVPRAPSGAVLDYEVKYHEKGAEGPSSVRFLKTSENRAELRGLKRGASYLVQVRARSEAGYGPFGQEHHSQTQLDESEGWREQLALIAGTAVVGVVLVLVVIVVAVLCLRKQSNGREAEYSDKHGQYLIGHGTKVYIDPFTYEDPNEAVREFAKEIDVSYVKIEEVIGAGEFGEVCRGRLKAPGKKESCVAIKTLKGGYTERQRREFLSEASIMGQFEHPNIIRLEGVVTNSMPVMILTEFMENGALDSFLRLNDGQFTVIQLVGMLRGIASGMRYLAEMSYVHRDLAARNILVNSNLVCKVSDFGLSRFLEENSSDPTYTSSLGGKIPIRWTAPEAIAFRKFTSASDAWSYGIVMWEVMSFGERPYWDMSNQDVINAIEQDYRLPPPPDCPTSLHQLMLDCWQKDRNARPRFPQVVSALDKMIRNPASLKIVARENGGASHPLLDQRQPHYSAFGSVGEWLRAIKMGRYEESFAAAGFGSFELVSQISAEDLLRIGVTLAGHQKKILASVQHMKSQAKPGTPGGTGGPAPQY

[16] = molecular target: 468 kinases (Homo sapiens, UniProt Q9NSY1); details: BIKE; read-out: % Inhibition @ 100 nM
[17] = molecular target: 468 kinases (Homo sapiens, UniProt Q86UX6); details: YANK3; read-out: % Inhibition @ 100 nM
[18] = molecular target: 468 kinases (Homo sapiens, UniProt Q8TDR2); details: STK35; read-out: % Inhibition @ 100 nM
[19] = molecular target: 468 kinases (Homo sapiens, UniProt P04629); details: TRKA; read-out: % Inhibition @ 100 nM
468 kinases (Homo sapiens, UniProt P04629), sequence (P04629 33-796 limits assumed): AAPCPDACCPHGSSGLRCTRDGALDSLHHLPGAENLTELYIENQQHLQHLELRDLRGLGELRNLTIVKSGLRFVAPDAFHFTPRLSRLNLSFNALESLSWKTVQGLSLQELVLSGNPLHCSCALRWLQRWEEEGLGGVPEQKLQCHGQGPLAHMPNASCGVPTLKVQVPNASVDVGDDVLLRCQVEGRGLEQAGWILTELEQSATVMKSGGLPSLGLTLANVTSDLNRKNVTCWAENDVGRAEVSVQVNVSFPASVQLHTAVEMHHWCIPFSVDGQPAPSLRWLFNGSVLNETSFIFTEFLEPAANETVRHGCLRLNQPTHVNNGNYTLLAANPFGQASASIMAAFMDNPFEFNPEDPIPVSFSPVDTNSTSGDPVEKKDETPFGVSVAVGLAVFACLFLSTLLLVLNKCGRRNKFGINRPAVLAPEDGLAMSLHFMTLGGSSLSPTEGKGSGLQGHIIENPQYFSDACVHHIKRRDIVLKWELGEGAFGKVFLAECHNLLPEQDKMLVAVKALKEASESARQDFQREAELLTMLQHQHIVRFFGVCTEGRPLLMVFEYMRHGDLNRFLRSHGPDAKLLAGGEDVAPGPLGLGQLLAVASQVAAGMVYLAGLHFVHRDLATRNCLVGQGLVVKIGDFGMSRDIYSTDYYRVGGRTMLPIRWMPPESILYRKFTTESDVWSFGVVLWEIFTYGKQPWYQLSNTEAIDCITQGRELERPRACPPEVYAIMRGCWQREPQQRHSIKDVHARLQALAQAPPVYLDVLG

[20] = molecular target: 468 kinases (Homo sapiens, UniProt Q13233); details: MAP3K1; read-out: % Inhibition @ 100 nM
[21] = molecular target: 468 kinases (Homo sapiens, UniProt P21860); details: ERBB3; read-out: % Inhibition @ 100 nM
[22] = molecular target: 468 kinases (Homo sapiens, UniProt P42684); details: ABL2; read-out: % Inhibition @ 100 nM
[23] = molecular target: 468 kinases (Homo sapiens, UniProt Q6P3R8); details: NEK5; read-out: % Inhibition @ 100 nM
[24] = molecular target: 468 kinases (Homo sapiens, UniProt Q9H422); details: HIPK3; read-out: % Inhibition @ 100 nM
[25] = molecular target: 468 kinases (Homo sapiens, UniProt Q8TDC3); details: BRSK1; read-out: % Inhibition @ 100 nM
[26] = molecular target: 468 kinases (Homo sapiens, UniProt P36888, N841I); details: FLT3(N841I); read-out: % Inhibition @ 100 nM
[27] = molecular target: 468 kinases (Homo sapiens, UniProt Q9H2X6); details: HIPK2; read-out: % Inhibition @ 100 nM
[28] = molecular target: 468 kinases (Homo sapiens, UniProt O75116); details: ROCK2; read-out: % Inhibition @ 100 nM
[29] = molecular target: 468 kinases (Homo sapiens, UniProt Q9Y6M4); details: CSNK1G3; read-out: % Inhibition @ 100 nM
[30] = molecular target: 468 kinases (Homo sapiens, UniProt O14976); details: GAK; read-out: % Inhibition @ 100 nM
468 kinases (Homo sapiens, UniProt O14976), sequence (O14976 2-1311 limits assumed): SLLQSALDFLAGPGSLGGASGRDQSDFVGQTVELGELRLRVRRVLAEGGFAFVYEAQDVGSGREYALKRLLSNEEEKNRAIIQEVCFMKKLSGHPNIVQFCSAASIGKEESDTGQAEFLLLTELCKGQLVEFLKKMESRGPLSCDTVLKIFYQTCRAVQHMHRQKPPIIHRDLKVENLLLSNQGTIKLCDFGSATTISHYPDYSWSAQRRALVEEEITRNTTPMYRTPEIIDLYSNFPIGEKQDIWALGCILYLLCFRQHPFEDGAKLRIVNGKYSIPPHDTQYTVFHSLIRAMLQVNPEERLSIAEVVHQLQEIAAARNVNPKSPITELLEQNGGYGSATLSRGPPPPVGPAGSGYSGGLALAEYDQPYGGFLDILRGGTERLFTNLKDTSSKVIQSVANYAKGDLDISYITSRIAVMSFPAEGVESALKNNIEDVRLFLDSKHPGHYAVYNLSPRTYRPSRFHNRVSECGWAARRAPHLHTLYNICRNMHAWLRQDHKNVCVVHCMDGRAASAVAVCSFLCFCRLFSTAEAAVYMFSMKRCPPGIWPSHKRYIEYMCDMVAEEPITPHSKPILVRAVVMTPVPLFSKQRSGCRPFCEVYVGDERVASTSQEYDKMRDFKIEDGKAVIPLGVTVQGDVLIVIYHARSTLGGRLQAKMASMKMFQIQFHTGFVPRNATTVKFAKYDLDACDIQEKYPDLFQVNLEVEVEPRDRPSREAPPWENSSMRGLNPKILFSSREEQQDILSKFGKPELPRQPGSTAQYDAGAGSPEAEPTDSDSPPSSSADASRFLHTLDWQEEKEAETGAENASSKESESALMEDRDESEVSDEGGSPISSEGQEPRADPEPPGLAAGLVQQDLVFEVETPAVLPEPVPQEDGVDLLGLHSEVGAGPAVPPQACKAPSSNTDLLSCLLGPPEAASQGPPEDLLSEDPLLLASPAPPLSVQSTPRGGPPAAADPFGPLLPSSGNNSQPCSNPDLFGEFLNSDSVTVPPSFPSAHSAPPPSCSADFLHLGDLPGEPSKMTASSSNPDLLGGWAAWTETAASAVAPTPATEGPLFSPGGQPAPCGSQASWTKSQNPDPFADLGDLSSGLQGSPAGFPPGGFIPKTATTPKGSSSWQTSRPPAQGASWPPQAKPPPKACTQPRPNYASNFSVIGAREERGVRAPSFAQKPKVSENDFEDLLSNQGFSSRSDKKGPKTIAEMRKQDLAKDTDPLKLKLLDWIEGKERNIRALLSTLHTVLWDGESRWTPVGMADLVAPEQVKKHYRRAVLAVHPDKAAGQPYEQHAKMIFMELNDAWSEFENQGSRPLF

[31] = molecular target: 468 kinases (Homo sapiens, UniProt P00519, H396P); details: read-out: % Inhibition @ 100 nM
[32] = molecular target: 468 kinases (Homo sapiens, UniProt P57058); details: HUNK; read-out: % Inhibition @ 100 nM
[33] = molecular target: 468 kinases (Homo sapiens, UniProt P21802); details: FGFR2; read-out: % Inhibition @ 100 nM
468 kinases (Homo sapiens, UniProt P21802), sequence (P21802 22-821 limits assumed): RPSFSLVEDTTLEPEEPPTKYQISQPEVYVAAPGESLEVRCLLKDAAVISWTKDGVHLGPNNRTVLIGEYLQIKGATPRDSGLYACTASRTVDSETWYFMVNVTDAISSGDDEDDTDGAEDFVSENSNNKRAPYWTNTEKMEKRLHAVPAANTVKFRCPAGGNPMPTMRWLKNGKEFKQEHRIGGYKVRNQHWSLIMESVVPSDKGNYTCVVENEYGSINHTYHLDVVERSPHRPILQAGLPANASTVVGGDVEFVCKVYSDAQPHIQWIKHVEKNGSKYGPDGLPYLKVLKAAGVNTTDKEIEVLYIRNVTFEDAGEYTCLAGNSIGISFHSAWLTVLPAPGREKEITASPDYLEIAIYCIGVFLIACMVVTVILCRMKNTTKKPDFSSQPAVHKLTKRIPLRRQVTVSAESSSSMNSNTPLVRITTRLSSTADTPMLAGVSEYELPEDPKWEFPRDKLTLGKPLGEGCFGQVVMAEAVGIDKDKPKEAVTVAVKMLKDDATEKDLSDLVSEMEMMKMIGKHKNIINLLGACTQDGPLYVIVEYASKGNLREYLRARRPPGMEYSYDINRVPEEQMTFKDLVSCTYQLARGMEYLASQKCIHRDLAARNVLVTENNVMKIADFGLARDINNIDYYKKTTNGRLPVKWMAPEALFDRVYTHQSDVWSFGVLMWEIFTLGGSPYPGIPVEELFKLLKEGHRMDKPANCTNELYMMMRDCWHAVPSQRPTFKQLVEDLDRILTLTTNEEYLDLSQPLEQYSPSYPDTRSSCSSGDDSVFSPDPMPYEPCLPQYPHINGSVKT

Compound	inhibition at 0.1 µM [1] [%]	inhibition at 0.1 µM [2] [%]	inhibition at 0.1 µM [3] [%]	inhibition at 0.1 µM [4] [%]	inhibition at 0.1 µM [5] [%]	inhibition at 0.1 µM [6] [%]	inhibition at 0.1 µM [7] [%]	inhibition at 0.1 µM ([8]; RSK4(Kin.Dom.1-N-terminal)) [%]	inhibition at 0.1 µM ([8]; RSK4(Kin.Dom.2-C-terminal)) [%]	inhibition at 0.1 µM [9] [%]	inhibition at 0.1 µM [10] [%]	inhibition at 0.1 µM [11] [%]	inhibition at 0.1 µM [12] [%]	inhibition at 0.1 µM [13] [%]	inhibition at 0.1 µM [14] [%]	inhibition at 0.1 µM [15] [%]	inhibition at 0.1 µM [16] [%]	inhibition at 0.1 µM [17] [%]	inhibition at 0.1 µM [18] [%]	inhibition at 0.1 µM [19] [%]	other results
CCN(CC)CCNC(=O)c1c(C)[nH]c(/C=C2\C(=O)Nc3ccc(CCO)cc32)c1C [Compound No. 10, (Z)—N-(2-(Diethylamino)ethyl)-5-((5-(2-hydroxyethyl)-2-oxoindolin-3-ylidene)methyl)-2,4-dimethyl-1H-pyrrole-3-carboxamide]	90.4	1	0	99.3	19	0	100	0	4	16	84	12	86	17	0	3	97.4	22	21	95.5	inhibition at 0.1 µM [20]: 0%; inhibition at 0.1 µM [21]: 14%; inhibition at 0.1 µM [22]: 0%; inhibition at 0.1 µM [23]: 0%; inhibition at 0.1 µM [24]: 21%; inhibition at 0.1 µM [25]: 29%; inhibition at 0.1 µM [26]: 95.5%; inhibition at 0.1 µM [27]: 58%; inhibition at 0.1 µM [28]: 29%; inhibition at 0.1 µM [29]: 6%; inhibition at 0.1 µM [30]: 36%; inhibition at 0.1 µM ([31]; ABL1 (H396P)-nonphosphorylated): 57%; inhibition at 0.1 µM ([31]; ABL1 (H396P)-phosphorylated): 6%; inhibition at 0.1 µM [32]: 13%; inhibition at 0.1 µM [33]: 37%
CCN(CC)CCNC(=O)c1c(C)[nH]c(/C=C2\C(=O)Nc3ccc(CCC(N)=O)cc32)c1C [Compound No. 16, (Z)-5-((5-(3-Amino-3-oxopropyl)-2-oxoindolin-3-ylidene)methyl)-N-(2-(diethylamino)ethyl)-2,4-dimethyl-1H-pyrrole-3-carboxamide]	83	0	13	96.9	0	0	100	70	22	9	71	27	80	16	8	0	93.6	0	15	97.4	inhibition at 0.1 µM [20]: 36%; inhibition at 0.1 µM [21]: 11%; inhibition at 0.1 µM [22]: 3%; inhibition at 0.1 µM [23]: 19%; inhibition at 0.1 µM [24]: 95.3%; inhibition at 0.1 µM [25]: 27%; inhibition at 0.1 µM [26]: 85%; inhibition at 0.1 µM [27]: 99.5%; inhibition at 0.1 µM [28]: 44%; inhibition at 0.1 µM [29]: 5%; inhibition at 0.1 µM [30]: 35%; inhibition at 0.1 µM ([31]; ABL1 (H396P)-nonphosphorylated): 66%; inhibition at 0.1 µM [32]: 0%; inhibition at 0.1 µM [33]: 1%
